Tests used:
[1] = test system: bicistronic HCV replicon (replicon RNA, GenBank Accession No. AJ242654); experiment: HCV Replicon Assay; type: cell-based; settings: Hepatitis C virus, 72 h, read-out: Replicon IC50

| SMILES | melting point | IC50 [1] [nM] |
| --- | --- | --- |
| CCc1cc2c(cc1F)c(C(N)=O)c(-c1ccc(S(=O)(=O)N[C@@H](C)C(F)(F)F)cn1)n2-c1ccc(Cl)cc1 [compound 1020, 1-(4-chlorophenyl)-6-ethyl-5-fluoro-2-(5-{[(2S)-1,1,1-trifluoropropan-2-yl]sulfamoyl}pyridin-2-yl)-1H-indole-3-carboxamide] | 240 to 247 °C | < 500 |
| Cc1cc2c(C#N)c(-c3ccc(S(=O)(=O)N[C@H](C)C(F)(F)F)cn3)n(C3CCC3)c2cc1Cl [compound 510, 6-(6-chloro-3-cyano-1-cyclobutyl-5-methyl-1H-indol-2-yl)-N-[(2R)-1,1,1-trifluoropropan-2-yl]pyridine-3-sulfonamide] | 200 to 200.5 °C | 500 to 2000 |
| Cc1ccc2c(C#N)c(-c3ncc(S(=O)(=O)N[C@@H](C)C(F)(F)F)cn3)n(C3CCCCC3)c2c1 [compound 605, 2-(3-cyano-1-cyclohexyl-6-methyl-1H-indol-2-yl)-N-[(2S)-1,1,1-trifluoropropan-2-yl]pyrimidine-5-sulfonamide] | 257 to 260 °C | < 500 |
| Cc1cc2c(C#N)c(-c3ccc(S(=O)(=O)N[C@@H](C)C(F)(F)F)cn3)n(-c3cnccn3)c2cc1F [compound 919, 6-[3-cyano-6-fluoro-5-methyl-1-(pyrazin-2-yl)-1H-indol-2-yl]-N-[(2S)-1,1,1-trifluoropropan-2-yl]pyridine-3-sulfonamide] | 233 to 238 °C | < 500 |
| N#Cc1c(-c2ncc(S(=O)(=O)NC(CF)CF)cn2)n(C2CCC2)c2ccc(Cl)cc12 [compound 175, 2-(5-chloro-3-cyano-1-cyclobutyl-1H-indol-2-yl)-N-(1,3-difluoropropan-2-yl)pyrimidine-5-sulfonamide] | 210 to 212 °C | < 500 |
| C[C@@H](NS(=O)(=O)c1ccc(-c2c(C#N)c3ccc(OC(F)F)cc3n2-c2ccccn2)nc1)C(F)(F)F [compound 534, 6-[3-cyano-6-(difluoromethoxy)-1-(pyridin-2-yl)-1H-indol-2-yl]-N-[(2R)-1,1,1-trifluoropropan-2-yl]pyridine-3-sulfonamide] | 159 to 161 °C | < 500 |
| COc1ccc2c(C#N)c(-c3ccc(S(=O)(=O)N[C@H](C)C(F)(F)F)cn3)n(C3CCCC3)c2c1 [compound 431, 6-(3-cyano-1-cyclopentyl-6-methoxy-1H-indol-2-yl)-N-[(2R)-1,1,1-trifluoropropan-2-yl]pyridine-3-sulfonamide] | 209 to 216 °C | < 500 |
| Cc1cc2c(cc1F)c(C(N)=O)c(-c1ccc(S(=O)(=O)N[C@@H](C)C(F)(F)F)cn1)n2-c1cnccn1 [compound 875, 5-fluoro-6-methyl-1-(pyrazin-2-yl)-2-(5-{[(2S)-1,1,1-trifluoropropan-2-yl]sulfamoyl}pyridin-2-yl)-1H-indole-3-carboxamide] | 162 to 169 °C | < 500 |
| Cc1ccc2c(C#N)c(-c3ccc(S(=O)(=O)N[C@@H](C)C(F)(F)F)cn3)n(C3CCC3)c2c1F [compound 421, 6-(3-cyano-1-cyclobutyl-7-fluoro-6-methyl-1H-indol-2-yl)-N-[(2S)-1,1,1-trifluoropropan-2-yl]pyridine-3-sulfonamide] | 210 to 220 °C | < 500 |
| N#Cc1ccc2c(C#N)c(-c3ncc(S(=O)(=O)NC(CF)CF)cn3)n(C3CCCC3)c2c1 [compound 469, 2-(3,6-dicyano-1-cyclopentyl-1H-indol-2-yl)-N-(1,3-difluoropropan-2-yl)pyrimidine-5-sulfonamide] | 246 to 247 °C | 500 to 2000 |
| C[C@H](NS(=O)(=O)c1ccc(-c2c(C#N)c3cc(OC(F)(F)F)ccc3n2-c2cnccn2)nc1)C(F)(F)F [compound 898, 6-[3-cyano-1-(pyrazin-2-yl)-5-(trifluoromethoxy)-1H-indol-2-yl]-N-[(2S)-1,1,1-trifluoropropan-2-yl]pyridine-3-sulfonamide] | 191 to 195 °C | 500 to 2000 |
| CCc1cc2c(cc1F)c(C(=O)O)c(-c1ncc(NS(=O)(=O)C(C)(C)C)cn1)n2C1CCCCC1 [compound 1028, 2-{5-[(tert-butylsulfonyl)amino]pyrimidin-2-yl}-1-cyclohexyl-6-ethyl-5-fluoro-1H-indole-3-carboxylic acid] | 236 to 237 °C | 2000 to 5000 |
| Cc1ccc2c(C#N)c(-c3ccc(S(=O)(=O)N[C@H](C)C(F)(F)F)cn3)n(-c3ncccn3)c2c1 [compound 688, 6-[3-cyano-6-methyl-1-(pyrimidin-2-yl)-1H-indol-2-yl]-N-[(2R)-1,1,1-trifluoropropan-2-yl]pyridine-3-sulfonamide] | 196 to 198 °C | < 500 |
| N#Cc1c(-c2ccc(S(=O)(=O)NC(CF)CF)cn2)n(C2CCC2)c2cc(Cl)c(F)cc12 [compound 50, 6-(6-chloro-3-cyano-1-cyclobutyl-5-fluoro-1H-indol-2-yl)-N-(1,3-difluoropropan-2-yl)pyridine-3-sulfonamide] | 211 to 213 °C | < 500 |
| Cc1cc2c(cc1F)c(C(N)=O)c(-c1ccc(S(=O)(=O)NC(C)(C)C(F)(F)F)cn1)n2C1CCCCC1 [compound 714, 1-cyclohexyl-5-fluoro-6-methyl-2-{5-[(1,1,1-trifluoro-2-methylpropan-2-yl)sulfamoyl]pyridin-2-yl}-1H-indole-3-carboxamide] | 245 to 250 °C | < 500 |
| CC(C)(C)S(=O)(=O)Nc1ccc(-c2c(C#N)c3ccc(Oc4ncccn4)cc3n2C2CCC2)cn1 [compound 268, N-{5-[3-cyano-1-cyclobutyl-6-(pyrimidin-2-yloxy)-1H-indol-2-yl]pyridin-2-yl}-2-methylpropane-2-sulfonamide] | 275 to 277 °C | < 500 |
| Cc1cc2c(cc1F)c(C(N)=O)c(-c1ccc(S(=O)(=O)N[C@@H](C)C(F)(F)F)cn1)n2C1CCC1 [compound 737, 1-cyclobutyl-5-fluoro-6-methyl-2-(5-{[(2S)-1,1,1-trifluoropropan-2-yl]sulfamoyl}pyridin-2-yl)-1H-indole-3-carboxamide] | 190 to 194 °C | < 500 |
| CC(=O)c1sccc1-n1c(-c2ccc(S(=O)(=O)N[C@@H](C)C(F)(F)F)cn2)c(C#N)c2cc(F)c(C)cc21 [compound 1055, 6-[1-(2-acetylthiophen-3-yl)-3-cyano-5-fluoro-6-methyl-1H-indol-2-yl]-N-[(2S)-1,1,1-trifluoropropan-2-yl]pyridine-3-sulfonamide] | 208.7 to 212.4 °C | 500 to 2000 |
| C[C@@H](NS(=O)(=O)c1ccc(-c2c(C#N)c3cc(Cl)ccc3n2-c2ccccn2)nc1)C(F)(F)F [compound 491, 6-[5-chloro-3-cyano-1-(pyridin-2-yl)-1H-indol-2-yl]-N-[(2R)-1,1,1-trifluoropropan-2-yl]pyridine-3-sulfonamide] | 150 to 154 °C | 500 to 2000 |
| CCCS(=O)(=O)Nc1ccc(-c2c(C#N)c3ccc(Oc4ncccc4C#N)cc3n2C2CCC2)nc1 [compound 272, N-(6-{3-cyano-6-[(3-cyanopyridin-2-yl)oxy]-1-cyclobutyl-1H-indol-2-yl}pyridin-3-yl)propane-1-sulfonamide] | 199 to 201 °C | 500 to 2000 |
| N#Cc1c(-c2ncc(S(=O)(=O)NC(CF)CF)cn2)n(C2CCC2)c2cc(OC(F)F)c(Cl)cc12 [compound 659, 2-[5-chloro-3-cyano-1-cyclobutyl-6-(difluoromethoxy)-1H-indol-2-yl]-N-(1,3-difluoropropan-2-yl)pyrimidine-5-sulfonamide] | 228 to 232 °C | < 500 |
| N#Cc1c(-c2ccc(S(=O)(=O)NC(CF)CF)cn2)n(C2CCCCC2)c2cc(OC(F)F)ccc12 [compound 100, 6-[3-cyano-1-cyclohexyl-6-(difluoromethoxy)-1H-indol-2-yl]-N-(1,3-difluoropropan-2-yl)pyridine-3-sulfonamide] | 175 to 178 °C | < 500 |
| Cc1cc2c(cc1F)c(C#N)c(-c1ccc(S(=O)(=O)N[C@@H](C)C(F)(F)F)cn1)n2-c1ccncn1 [compound 896, 6-[3-cyano-5-fluoro-6-methyl-1-(pyrimidin-4-yl)-1H-indol-2-yl]-N-[(2S)-1,1,1-trifluoropropan-2-yl]pyridine-3-sulfonamide] | 214 to 219 °C | < 500 |
| CCc1cc2c(cc1F)c(C(N)=O)c(-c1ccc(S(=O)(=O)N[C@@H](C)C(F)(F)F)cn1)n2-c1ncccn1 [compound 849, 6-ethyl-5-fluoro-1-(pyrimidin-2-yl)-2-(5-{[(2S)-1,1,1-trifluoropropan-2-yl]sulfamoyl}pyridin-2-yl)-1H-indole-3-carboxamide] | 235 to 236 °C | < 500 |
| N#Cc1c(-c2ccc(S(=O)(=O)NC(CF)CF)cn2)n(C2CCOC2)c2ccc(F)cc12 (centres unmarked) [compound 46, 6-[3-cyano-5-fluoro-1-(tetrahydrofuran-3-yl)-1H-indol-2-yl]-N-(1,3-difluoropropan-2-yl)pyridine-3-sulfonamide] | 194 to 197 °C | < 500 |
| N#Cc1c(-c2ncc(S(=O)(=O)NC(CF)CF)cn2)n(C2CCCCC2)c2cc(C3CC3)ccc12 [compound 193, 2-(3-cyano-1-cyclohexyl-6-cyclopropyl-1H-indol-2-yl)-N-(1,3-difluoropropan-2-yl)pyrimidine-5-sulfonamide] | > 200 °C (dec.) | < 500 |
| Cc1cc2c(cc1F)c(C#N)c(-c1ccc(S(=O)(=O)N[C@@H](C)C(F)(F)F)cn1)n2-c1ccc(F)nc1 [compound 1015, 6-[3-cyano-5-fluoro-1-(6-fluoropyridin-3-yl)-6-methyl-1H-indol-2-yl]-N-[(2S)-1,1,1-trifluoropropan-2-yl]pyridine-3-sulfonamide] | 246.8 to 252.7 °C | < 500 |
| Cc1cc2c(cc1F)c(C(=O)O)c(-c1ncc(S(=O)(=O)NC(C)(C)C)cn1)n2C1CCC1 [compound 794, 2-[5-(tert-butylsulfamoyl)pyrimidin-2-yl]-1-cyclobutyl-5-fluoro-6-methyl-1H-indole-3-carboxylic acid] | 194 to 201 °C | 2000 to 5000 |

Source: US8735414B2 (priority 2009, dated 2014)
